Results: US8349850B2, “Heterocyclic compounds and uses thereof in the treatment of sexual disorders” (ATIR Holding S.A., priority 2006, dated 2013)

Legend:
D4.4 receptor = biological target: T1, D4.4 receptor (Homo sapiens, UniProt P21917); assay: Competitive binding to D4.4 dopamine receptor ([3H]-YM-09151-2 radioligand); details: 5 mcM compound; human recombinant D4.4 in CHO cells; na = no activity
T1 construct: expressed in transfected cells; host or cells: CHO cells
T1 sequence (P21917 1-419): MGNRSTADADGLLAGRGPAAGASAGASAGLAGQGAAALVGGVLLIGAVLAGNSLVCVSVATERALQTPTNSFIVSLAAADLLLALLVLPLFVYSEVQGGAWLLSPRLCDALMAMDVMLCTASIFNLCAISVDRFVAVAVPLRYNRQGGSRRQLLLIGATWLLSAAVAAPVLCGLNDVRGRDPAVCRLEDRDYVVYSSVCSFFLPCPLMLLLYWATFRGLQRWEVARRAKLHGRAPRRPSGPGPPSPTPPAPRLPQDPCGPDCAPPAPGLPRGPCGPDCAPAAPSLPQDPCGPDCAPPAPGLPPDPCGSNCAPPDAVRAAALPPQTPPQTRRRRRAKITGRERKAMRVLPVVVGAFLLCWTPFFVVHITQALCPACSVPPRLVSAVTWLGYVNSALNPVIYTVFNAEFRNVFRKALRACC
Experimental: Compounds were assayed for competitive binding to D2 SHORT and D4.4 type dopamine receptors. Both receptor types are expressed as human recombinant proteins in CHO cells, as described, for example, in Jarvis et al. (1973); Van Tol et al. (1991) and Van Tol et al. (1992).
Determination of binding to D4.4 receptor was performed using [^3H]-YM-09151-2 (70-87 Ci/mmol, 0.3 nM), as a radioligand, in with the presence of various concentrations of the tested compound. Reactions were carried out in 50 mM TRIS-HCl (pH 7.4) containing 5 mM MgCl2, 5 mM EDTA, 5 mM KCl and 1.5 mM CaCl2, for 60 minutes at 22° C. The reaction was terminated by rapid vacuum filtration onto glass fiber filters. Radioactivity trapped onto the filters was determined (counted) and compared to control values in order to accurately evaluate any interaction of the tested compound(s) with the cloned dopamine D4.4 binding site.

[1] = biological target: T2, PDE5 partially purified from human platelets (Homo sapiens, UniProt O76074); assay: Phosphodiesterase Type 5 (PDE5) Inhibition; assay type: biochemical; details: for inhibition at 50 µM: 50 mcM compound, 1 μM cGMP; for PDE5 IC50, 10^−6 M / IC50: 'active' = observed activity not quantitated; for IC50: read-out: PDE5 IC50, 10^−6 M; for exhibit both PDE5 inhibition and D4 agonist activity (dual activity): referring to Table 2 (PDE5 and D4 assays)
T2 construct: PDE5 partially purified from human platelets was used; from tissue; host or cells: human platelets
Experimental: Phosphodiesterase type 5 (PDE5) catalyzes the conversion of cAMP or cGMP to their respective monophosphate forms. PDE5 has a high Km for cAMP and a low Km for cGMP, is insensitive to Ca^2+/calmodulin or cGMP regulation, and is relatively sensitive to inhibitors such as dipyridamol and zaprinast.
PDE5 partially purified from human platelets was used. The tested compound (at a concentration of 0.1, 1, 20 or 50 μM) and/or vehicle was incubated with 3.5 μg enzyme and 1 μM cGMP containing 0.01 μM [^3H]cGMP in Tris buffer pH 7.5 for 20 minutes at 30° C. Since enzyme activity may change from lot to lot, the concentration used was adjusted if required.
The reaction was terminated by boiling the reaction mixture for 2 minutes. The obtained GMP was then converted to guanosine by addition of 10 mg/ml snake venom nucleotidase and further incubation at 30° C. for 10 minutes. Unhydrolyzed cGMP was bound to AG1-X2 resin, and remaining [^3H]Guanosine in the aqueous phase was quantitated by scintillation counting.

Row | SMILES | inhibition at 5 µM (D4.4 receptor) [%] | inhibition at 50 µM [1] [%] | further results
1 | CCn1c(=O)c2[nH]c(CN3CC=C(c4ccccc4)CC3)nc2n(CC)c1=O [Xan2] | 25 |  | 
2 | O=c1[nH]c(CN2CCN(c3ccccn3)CC2)nc2ccccc12 [Compound 102, 2-[(4-pyridin-2-ylpiperazin-1-yl)methyl]quinazolin-4(3H)-one] |  | 29 | PDE5 IC50, 10^−6 M [1]: active
3 | O=c1[nH]c(CN2CCN(c3cccc(O)c3)CC2)nc2cc(Cl)ccc12 [Compound B-8, 7-chloro-2-((4-(3-hydroxyphenyl)piperazin-1-yl)methyl)quinazolin-4(3H)-one] | 90 | 28 | PDE5 IC50, 10^−6 M [1]: active
4 | COc1cc2nc(CN3CCN(c4cccc(O)c4)CC3)[nH]c(=O)c2cc1OC [Compound B-4, 2-((4-(3-hydroxyphenyl)piperazin-1-yl)methyl)-6,7-dimethoxyquinazolin-4(3H)-one] | 91 | 25 | PDE5 IC50, 10^−6 M [1]: active
5 | O=c1[nH]c(CN2CCN(c3cccc(O)c3)CC2)nc2cc(Cl)ccc12 [Compound B-3] |  |  | D4.4(h) Competitive Binding, % at 5 mcM (D4.4 receptor): 82%
6 | COc1ccccc1C1=CCN(Cc2nc3ccccc3c(=O)[nH]2)CC1 [Compound B-31, 2-((5,6-dihydro-4-(2-methoxyphenyl)pyridin-1(2H)-yl)methyl)quinazolin-4(3H)-one] | 74 |  | 
7 | O=c1[nH]c(CN2CCN(c3ncccn3)CC2)nc2nc[nH]c12 [Compound 408, 2-((4-(pyrimidin-2-yl)piperazin-1-yl)methyl)-1H-purin-6(7H)-one] | 33 | 32 | PDE5 IC50, 10^−6 M [1]: active
8 | Cc1cccc2nc(CN3CCN(c4cccc(O)c4)CC3)[nH]c(=O)c12 [Compound B-9, 2-((4-(3-hydroxyphenyl)piperazin-1-yl)methyl)-5-methylquinazolin-4(3H)-one] | 89 | 47 | PDE5 IC50, 10^−6 M [1]: active
9 | O=c1[nH]c(CN2CC=C(c3ccccn3)CC2)nc2cc(Cl)ccc12 [Compound B-71, 7-chloro-2-((5,6-dihydro-4-(pyridin-2-yl)pyridin-1(2H)-yl)methyl)quinazolin-4(3H)-one] |  | 63 | IC50 [1]: 27 µM
10 | O=c1[nH]c(CN2CC=C(c3ccccn3)CC2)nc2ccccc12 [Compound 115, 2-(3′,6′-dihydro-2,4′-bipyridin-1′(2′H)-ylmethyl)quinazolin-4(3H)-one] | 66 |  | 
11 | O=c1[nH]c2ccccc2nc1CN1CC=C(c2ccccc2)CC1 [Compound B-42, 3-((5,6-dihydro-4-phenylpyridin-1(2H)-yl)methyl)quinoxalin-2(1H)-one] | 62 |  | 
12 | COc1ccccc1C1=CCN(Cc2nc3cc(Cl)ccc3c(=O)[nH]2)CC1 [Compound B-39, 7-chloro-2-((5,6-dihydro-4-(2-methoxyphenyl)pyridin-1(2H)-yl)methyl)quinazolin-4(3H)-one] | 95 |  | 
13 | O=c1[nH]c(CN2CC=C(c3ccccc3)CC2)nc2cc(Cl)ccc12 [Compound B-47, 7-chloro-2-((5,6-dihydro-4-phenylpyridin-1(2H)-yl)methyl)quinazolin-4(3H)-one] | 63 |  | 

Second part, led by results:

Row | inhibition at 5 µM (D4.4 receptor) [%] | inhibition at 50 µM [1] [%] | SMILES | further results
14 | 11 | 31 | CCCn1cnc2nc(CN3CCN(c4cccc(O)c4)CC3)[nH]c(=O)c21 [Compound B-33, 2-((4-(3-hydroxyphenyl)piperazin-1-yl)methyl)-7-propyl-1H-purin-6(7H)-one] | PDE5 IC50, 10^−6 M [1]: active
15 | 86 |  | CCOc1cccnc1N1CCN(Cc2nc3ccccc3c(=O)[nH]2)CC1 [Compound B-13, 2-((4-(3-ethoxypyridin-2-yl)piperazin-1-yl)methyl)quinazolin-4(3H)-one] | 
16 | 29 |  | O=c1[nH]c2ccccc2nc1CN1CCN(c2ncccn2)CC1 [Compound B-44, 3-((4-(pyrimidin-2-yl)piperazin-1-yl)methyl)quinoxalin-2(1H)-one] | 
17 | 46 |  | CCOc1ccccc1N1CCN(Cc2nc3cc(Cl)ccc3c(=O)[nH]2)CC1 [Compound B-45, 7-chloro-2-((4-(2-ethoxyphenyl)piperazin-1-yl)methyl)quinazolin-4(3H)-one] | 
18 |  | 26 | CCOc1cccnc1N1CCN(Cc2nc3cc(Cl)ccc3c(=O)[nH]2)CC1 [Compound B-43, 7-chloro-2-((4-(3-ethoxypyridin-2-yl)piperazin-1-yl)methyl)quinazolin-4(3H)-one] | PDE5 IC50, 10^−6 M [1]: active
19 | 57 |  | O=c1[nH]c(CN2CCCC(c3ccccn3)C2)nc2ccccc12 (stereo not drawn) [Compound B-83, 2-((3-(pyridin-2-yl)piperidin-1-yl)methyl)quinazolin-4(3H)-one] | 
20 |  | 73 | O=c1c2ccccc2nc(CN2CCN(c3ncccn3)CC2)n1Cc1ccccc1 [Compound B-75, 3-benzyl-2-((4-(pyrimidin-2-yl)piperazin-1-yl)methyl)quinazolin-4(3H)-one] | IC50 [1]: 21 µM
21 | 60 | 40 | O=c1[nH]c(CN2CCN(c3ncccc3OCc3ccccc3)CC2)nc2ccccc12 [Compound B-10, 2-((4-(3-(benzyloxy)pyridin-2-yl)piperazin-1-yl)methyl)quinazolin-4(3H)-one] | PDE5 IC50, 10^−6 M [1]: active
22 | 65 |  | COc1ccccc1N1CCN(Cc2nc3cc(Cl)ccc3c(=O)[nH]2)CC1 [Compound B-38, 7-chloro-2-((4-(2-methoxyphenyl)piperazin-1-yl)methyl)quinazolin-4(3H)-one] | 
23 | 70 | 62 | O=c1[nH]c(CN2CCN(c3ncccn3)CC2)nc2cc(Cl)ccc12 [Compound B-72, 7-chloro-2-((4-(pyrimidin-2-yl)piperazin-1-yl)methyl)quinazolin-4(3H)-one] | IC50 [1]: 2 µM; exhibit both PDE5 inhibition and D4 agonist activity (dual activity) [1]: both PDE5 inhibition and D4 agonist activity
24 | 81 | 70 | CCCOc1cccnc1N1CCN(Cc2nc3ccccc3c(=O)[nH]2)CC1 [Compound B-14, 2-((4-(3-propoxypyridin-2-yl)piperazin-1-yl)methyl)quinazolin-4(3H)-one] | IC50 [1]: 9 µM; exhibit both PDE5 inhibition and D4 agonist activity (dual activity) [1]: both PDE5 inhibition and D4 agonist activity
25 | 88 |  | O=c1[nH]c(CN2CCC(c3ccccc3)CC2)nc2ccccc12 [Compound B-51, 2-((4-phenylpiperidin-1-yl)methyl)quinazolin-4(3H)-one] | 
26 | 82 |  | O=c1[nH]c(CN2CCN(c3cccc(O)c3)CC2)nc2cccc(F)c12 [Compound B-36, 5-fluoro-2-((4-(3-hydroxyphenyl)piperazin-1-yl)methyl)quinazolin-4(3H)-one] | 
27 | 62 |  | O=c1[nH]c2ccccc2nc1CN1CCN(c2cccc(O)c2)CC1 [Compound B-37, 3-((4-(3-hydroxyphenyl)piperazin-1-yl)methyl)quinoxalin-2(1H)-one] | 
28 | 54 |  | CCn1c(=O)c2[nH]c(CN3CCN(c4cccc(O)c4)CC3)nc2n(CC)c1=O [Xan1, 1,3-diethyl-8-((4-(3-hydroxyphenyl)piperazin-1-yl)methyl)-1H-purine-2,6(3H,7H)-dione] | 
29 | 84 |  | N#Cc1ccccc1N1CCN(Cc2nc3ccccc3[nH]c2=O)CC1 [Compound B-34, 2-(4-((1,2-dihydro-2-oxoquinoxalin-3-yl)methyl)piperazin-1-yl)benzonitrile] | 
